# Results reported in patent US8765688B2, “Anti-dandruff compositions containing peptides” (priority 2007, dated 2014).
# Ends that are not written are not given here.
# What was measured:
# Escherichia coli [1] = experiment: Growth inhibition of Gram-negative bacteria by P18 (optical density at 620 nm); format: cell-based; details: for optical density at 620 nm: E. coli suspension, 25 μM P18 solution, mean of 8 mixtures
# Procedure: The growth inhibition by P18 was investigated on Gram-positive and Gram-negative bacteria. Shin et al. 1999 (loc.cit.) had already detected an inhibition on the model organisms Escherichia coli and Bacillus subtilis within a period up to 18 hours.
# The growth medium used for this was LB medium as complex medium for the organisms Escherichia coli, Bacillus subtilis and Brevibacterium epidermidis. The medium comprised 10 g of trypton, 5 g of yeast extract and 10 g of NaCl per liter.
# The growth test was carried out as follows: A shake flask with medium was inoculated with Escherichia coli, Bacillus subtilis or Brevibacterium epidermidis and incubated with shaking overnight at 30° C. and 200 rpm. A 96-well microtiter plate was filled with in each case 100 μl LB medium and inoculated with E.-coli, B.-subtilis or B. epidermidis suspensions of the overnight culture. The bacteria suspension was adjusted at the start of the experiment to an optical density, measured at 620 nm, of about 0.02. The concentrates of the P18 inhibitor solutions were 1 mM in water.
# (§1) The growth of the following mixtures was compared by measuring the optical density:
# bacteria suspension without the addition of an inhibitor;
# bacteria suspension and addition of an aqueous P18 solution with a final concentration of 25 μM. The aqueous P18 solution had been freshly prepared.
# The growth was observed over a period of 40 hours by measuring the optical density. […] The growth of Gram-positive bacteria was inhibited initially.
# Malassezia furfur = experiment: Effect of P18 variants against M. furfur, CFU after 24 hours at 50 μM; format: cell-based
# Procedure: The inhibitory effect of the following P18 variants against M. furfur was analyzed:
# The experiments were carried out as follows:
# Growth medium: M472-Pityrosporum medium according to DSMZ
# The components were sterilized at 121° C., 1 bar superatmospheric pressure for 20 minutes.
# 2 g/L of olive oil (sterilized by filtration and, after autoclaving, added to the other components)
# Since it was a two-phase medium, the complete medium was treated with sonication in order to enlarge the phase boundary.
# For agar plates, if appropriate, 150 g/L of agar agar were added to the medium.
# The growth test was carried out as follows: A shake flask with M472-Pityrosporum medium was inoculated with M. furfur and incubated with shaking overnight at 30° C. and 200 rpm.
# A 96-well microtiter plate was filled with in each case 100 μl of M472-Pityrosporum medium and inoculated with M. furfur suspension of the overnight culture. The M. furfur suspension was adjusted at the start of the experiment to an optical density, measured at 600 nm, of 0.1. […]
# After 24 hours, the colony-forming units (CFU were determined by plating out 10 μl from each of the suspensions and, after incubation for 6 days, counting the colonies. Two independent experiments with in each case three identical mixtures were carried out and the number of colony-forming units was averaged.
# E. coli cells = experiment: Biodegradability of P18: chymotrypsin digestion, then antimicrobial activity on E. coli cells; format: cell-based, Escherichia coli; details: for optical density at 620 nm in two independent experiments: aqueous P18 solution 10 μM, undigested, cell gives both experiments
# Procedure: Firstly, the peptide P18 was digested by adding chymotrypsin (from bovine pancreas, Sigma). For this, a 1 mM P18 solution was prepared and treated in accordance with the manufacturer's instructions. The samples were incubated for 16 hours at 37° C. The negative control used was a sample of a P18 solution without addition of chymotrypsin or a control solution which comprised only chymotrypsin, but no P18. The antimicrobial activity of P18 on E. coli cells was then investigated. The test was carried out as described in Example 3.
# as §1
# (§2) E. coli suspension without the addition of an inhibitor.
# E. coli suspension and addition of an aqueous P18 solution with a final concentration of 10 μM. The P18 solution had been stored beforehand for 16 hours at 37° C.
# E. coli suspension and addition of an aqueous P18 solution with a final concentration of 10 μM. The P18 solution had been stored beforehand in accordance with the manufacturer's instructions for 16 hours at 37° C. and treated with chymotrypsin.
# E. coli suspension and addition of an aqueous chymotrypsin solution which comprised, as control, the same amount of chymotrypsin as the P18 solution which was digested with chymotrypsin. This solution too had been stored beforehand for 16 hours at 37° C. This mixture was chosen in order to exclude an antimicrobial effect of the chymotrypsin.
# The growth was observed over a period of 16 hours by measuring the optical density.
# Escherichia coli [2] = experiment: Long-term stability of P18 (2 weeks at 37° C.), detected through inhibition of the growth of Escherichia coli; format: cell-based; details: for optical density at 620 nm: 25 μM
# Procedure: The long-term stability of P18 was observed over a period of 2 weeks. For this, a 1 mM P18 solution in water was incubated at 37° C. over the entire period. At the start of the experiment and then on these two weeks, the antimicrobial activity was detected through inhibition of the growth of Escherichia coli. The growth medium used here was LB medium as complex medium. The medium comprised 10 g of trypton, 5 g of yeast extract and 10 g of NaCl per liter.
# The growth test was carried out as follows: A shake flask of LB medium was inoculated with Escherichia coli and incubated overnight with shaking at 37° C. and 200 rpm. A 96-well microtiter plate was filled with in each case 100 μl of LB medium and inoculated with E. coli suspension of the overnight culture. The E. coli suspension was adjusted at the start of the experiment to an optical density, measured at 620 nm, of about 0.02. The concentrates of the P18 inhibitor solutions were 1 mM in water.
# as §1, §2
# E. coli suspension and addition of an aqueous P18 solution with a final concentration of 25 μM. The aqueous P18 solution had been freshly prepared.
# E. coli suspension and addition of an aqueous P18 solution with a final concentration of 25 μM. The aqueous stock solution had been incubated for 2 weeks at 37° C.
# The growth was observed over a period of 40 hours by measuring the optical density.
substance,measurement,setting,value
"KWKLFKKIPKFLHLAKKF-NH2 [P18, KWKLFKKIPKFLHLAKKF-NH2]",growth of E. coli (in words),"Escherichia coli [1]; 25 μM, period of 40 hours",effectively inhibited
same,optical density at 620 nm,Escherichia coli [1]; incubation time 16 h,0.09
same,optical density at 620 nm,Escherichia coli [1]; incubation time 24 h,0.06
same,optical density at 620 nm,Escherichia coli [1]; incubation time 40 h,0.07
same,Averaged number of colony-forming units (CFU),Malassezia furfur; 50 μM peptide in DMSO,0
same,inhibitory effect against M. furfur compared to DMSO,"Malassezia furfur; 50 μM, effectiveness increasing in the order P18AC-OH, P18-OH, P18",increased inhibitory effect against M. furfur as compared to DMSO
same,optical density at 620 nm in two independent experiments,E. coli cells; incubation time 0 h,0-0
same,optical density at 620 nm in two independent experiments,E. coli cells; incubation time 16 h,0.01-0.09
same,biodegradability (protease digestion),"E. coli cells; chymotrypsin, 16 hours at 37° C.","digestion of P18 with a serine protease, such as, for example, chymotrypsin, is possible"
same,antimicrobial activity after storage (long-term stability),"Escherichia coli [2]; 1 mM solution in water, 2 weeks at 37° C.",unchanged
same,optical density at 620 nm,"Escherichia coli [2]; fresh aqueous P18 solution, incubation time 0 h",0.098
same,optical density at 620 nm,"Escherichia coli [2]; fresh aqueous P18 solution, incubation time 16 h",0
same,optical density at 620 nm,"Escherichia coli [2]; fresh aqueous P18 solution, incubation time 24 h",0
same,optical density at 620 nm,"Escherichia coli [2]; fresh aqueous P18 solution, incubation time 40 h",0
same,optical density at 620 nm,"Escherichia coli [2]; stored aqueous P18 solution (2 weeks at 37° C.), incubation time 0 h",0.081
same,optical density at 620 nm,"Escherichia coli [2]; stored aqueous P18 solution (2 weeks at 37° C.), incubation time 16 h",0
same,optical density at 620 nm,"Escherichia coli [2]; stored aqueous P18 solution (2 weeks at 37° C.), incubation time 24 h",0
same,optical density at 620 nm,"Escherichia coli [2]; stored aqueous P18 solution (2 weeks at 37° C.), incubation time 40 h",0
